# Reference: BindingDB's records for doi:10.1021/jm00126a039 (University of Wisconsin-Madison, 1989)
# Biological target: T1, Gastricsin (Rattus norvegicus, UniProt P04073)
# T1 sequence (P04073 whole entry): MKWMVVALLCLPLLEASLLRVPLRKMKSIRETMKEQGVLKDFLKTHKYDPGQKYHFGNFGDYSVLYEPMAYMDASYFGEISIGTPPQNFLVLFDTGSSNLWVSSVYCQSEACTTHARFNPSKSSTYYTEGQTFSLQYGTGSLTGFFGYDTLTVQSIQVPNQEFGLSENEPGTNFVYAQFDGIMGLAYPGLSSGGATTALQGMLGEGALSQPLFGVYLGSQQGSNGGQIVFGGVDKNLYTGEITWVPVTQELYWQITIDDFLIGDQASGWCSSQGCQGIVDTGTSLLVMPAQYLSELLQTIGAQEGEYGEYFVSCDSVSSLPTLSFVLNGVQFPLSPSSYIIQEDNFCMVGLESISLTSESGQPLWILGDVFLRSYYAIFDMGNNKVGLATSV
# Assay: ChEBML_154148
# Description: Inhibition of enzyme pepsin
row,Ki [nM],SMILES
1,3,CC(C)CCNC(=O)[C@H](C)NC(=O)C[C@H](O)[C@H](CC(C)C)NC(=O)[C@@H](NC(=O)CC(C)C)C(C)C [3-Hydroxy-6-methyl-4-[3-methyl-2-(3-methyl-butyrylamino)-butyrylamino]-heptanoic acid [1-(3-methyl-butylcarbamoyl)-ethyl]-amide]
2,110,CCC(NC(=O)[C@H](C)NC(=O)[C@H](C)CC(=O)[C@H](CC(C)C)NC(=O)[C@@H](NC(=O)CC(C)C)C(C)C)C(=O)O (stereo partly drawn)
3,3,CCC(NC(=O)[C@H](C)NC(=O)[C@H](C)C[C@H](O)[C@H](CC(C)C)NC(=O)[C@@H](NC(=O)CC(C)C)C(C)C)C(=O)O (stereo partly drawn)
